Source: patent US6331555A, “Treatment of platelet derived growth factor related disorders such as cancers” (priority 1999, dated 2001)
Where “and” joins values, the source holds several entries; their conditions need not be identical. Identical values can stand only once. Like-named read-outs stand apart in the source and are kept apart here.

Assays:
[1] = target: T1, PDGF-R (U1242) (Homo sapiens, UniProt P09619); experiment: U1242 kinase (PDGF-R activity); assay type: cell-based
T1 construct: U1242 (PDGF-β receptor); host or cells: U1242 MG glioma cells
Experimental: (§1) For western blotting, cells were plated in 2 mL growth medium into 6-well dishes (500,000 cells per well) and allowed to attach overnight. […] The plates were then incubated overnight at 37° C., ambient CO2. […] After a 7 min incubation at room temperature with ligand, the plates were put on ice and washed three times with 1 mL ice-cold PBS plus 1 mM orthovanadate. Lysis was achieved by pipetting cells in 0.5 mL of buffer containing 50 mM Tris, pH 7.4, 10% glycerol, 1% NP-40, 2 mM EDTA, 1 mM sodium vanadate (Na3 VO4), 10 mM pyrophosphate, 1 mM PMSF, […]. A 300 μL aliquot of each lysate was immediately added to 100 μL 4×Laemmli sample buffer ([…] Tris pH 6.9, 20% glycerol, 7% SDS, 5 mM EDTA, 5% β-mercaptoethanol) containing phosphatase inhibitors, 2 mM Na3 VO4 and 10 mM pyrophosphate. Samples were boiled for 5 min, frozen in dry ice-ethanol, and stored at -80° C. […] The integrity of the protein-to-membrane transfer was determined by staining with 1% Ponceau S in 5% acetic acid for 5 min. After destaining in several distilled water rinses, the membrane was soaked overnight in blocking buffer containing 5% milk in Tris-buffered saline, 0.05% Tween 20. Phosphotyresine was detected by incubating the membrane (1 hr at room temperature) with an anti-phosphotyosine antiserum diluted in blocking buffer at 1:3000. […] The antibodies were visualized using ECL reagent from Amersham and by exposure to Fuji RX film.
(§2) For ELISA assays, cells were grown to 80-90% confluency in growth medium and seeded in 96-well tissue culture plates in 0.5% serum at 25,000 to 30,000 cells per well. After overnight incubation in 0.5% serum-containingmedium, cells were changed to serum-free medium and treated with test compound for 2 hr in a 5% CO2, 37° C. incubator. […] Lysates were incubated with shaking for 1 hr at room temperature. The plates were washed with TBST four times and then incubated with polyclonol anti-phosphotyrosine antibody at room temperature for 30 min. Excess anti-phosphotyrosine antibody was removed by rinsing the plate with TBST four times. Goat anti-rabbit IgG antibody was added to the ELISA plate for 30 min at room temperature followed by rinsing with TBST four more times.
PDGF-R activity, C6 SRB, and in vivo efficacy were measured using the procedures described in the appendices above.

[2] = target: T2, PDGFR (Homo sapiens, UniProt P09619); experiment: PDGF-stimulated receptor phosphorylation in U1242 cells, ELISA; assay type: cell-based; design: U1242 (PDGF-β receptor); host or cells: U1242 MG glioma cells; settings: 100 ng/ml PDGF-BB; read-out: ELISA P-TYR U1242 IC50
Experimental: as §2, with “incubator. Cells were then stimulated with ligand for 5-10 min followed by lysis with HNTG (20 mM Hepes, 150 mM NaCl, 10% glycerol, 5 mM EDTA, 5 mM Na3 VO4 0.2% Triton X-100, and 2 mM NaPyr).” for “incubator.”
U1242 MG cells were plated in 96-well plates at a concentration of 5×10^4 cells/well in cultured media containing 0.5% FBS. The cells were incubated for 24 hours. The cells were then treated with a particular compound for 2 hours followed by the addition of 100 ng/ml PDGF-BB and incubation for 10 minutes.
Cells were lysed in 0.2 M Hepes, 0.15 M NaCl, 10% V/V glycerol, 0.04% Triton X-100, 5 mM EDTA, 5 MM Na^+ vanadate and […] Na^+ pyrophosphate. Cell lysates were then added to an ELISA plate coated with an anti-PDGF receptor antibody (Genzyme). ELISA plates were coated at […] of antibody/well in […] of PBS for 18 hours at 4° C. prior to the addition of the lysate.
The lysate was incubated in the coated plates for 1 hour and then washed four times in TBST (35 mM Tris-HCl pH 7.0, 0.15 M NaCl, 0.1% Triton X-100). Anti-phosphotyrosine antibody ([…] in PBS) was added and the mixture was incubated for 30 minutes at room temperature. The wells were then washed four times in TBST, a secondary antibody conjugated to POD (TAGO) was added to each well, and the treated wells were incubated for 30 minutes at room temperature. The wells were then washed four times in TBST, ABTS/H2 O2 solution was added to each well and the wells were incubated for two minutes. Absorbance was then measured at 410 nm.

[3] = test system: PDGFR; experiment: Receptor tyrosine kinase inhibition, PDGFR; assay type: cell-based
Experimental: as §1, §2
(§3) The ability of different compound to inhibit different receptor tyrosine kinases was tested.

[4] = test system: C6 cells; experiment: C6 SRB growth assay; assay type: cell-based, rat; settings: Rattus norvegicus, C6; read-out: C6 SRB IC50
[5] = target: T3, EGFR (Homo sapiens, UniProt P00533); experiment: Receptor tyrosine kinase inhibition, EGFR; assay type: cell-based; settings: for IC50: read-out: EGFR ID50
T3 construct: expressed in transfected cells; host or cells: NIH3T3 mouse fibroblasts, retroviral vector
Experimental: (§4) For western blotting, cells were plated in 2 mL growth medium into 6-well dishes (500,000 cells per well) and allowed to attach overnight. The medium was replaced with 2 mL MCDB 105 (UCSF Cell Culture Facility) supplemented with 1% FBS. The plates were then incubated overnight at 37° C., ambient CO2. […] After a 7 min incubation at room temperature with ligand, the plates were put on ice and washed three times with 1 mL ice-cold PBS plus 1 mM orthovanadate. Lysis was achieved by pipetting cells in 0.5 mL of buffer containing 50 mM Tris, pH 7.4, 10% glycerol, 1% NP-40, 2 mM EDTA, 1 mM sodium vanadate (Na3 VO4), 10 mM pyrophosphate, 1 mM PMSF, […]. A 300 μL aliquot of each lysate was immediately added to 100 μL 4×Laemmli sample buffer ([…] Tris pH 6.9, 20% glycerol, 7% SDS, 5 mM EDTA, 5% β-mercaptoethanol) containing phosphatase inhibitors, 2 mM Na3 VO4 and 10 mM pyrophosphate. Samples were boiled for 5 min, frozen in dry ice-ethanol, and stored at -80° C. Proteins were resolved by SDS-PAGE (Bio-Rad Miniprotean II) and transferred to nitrocellulose membrane (Schleicher & Schuell) at 120 volts for 1 hr at room temperature in buffer containing 25 mM Tris pH 8.3, 20% methanol, 0.2 M glycine, 0.1% SDS. The integrity of the protein-to-membrane transfer was determined by staining with 1% Ponceau S in 5% acetic acid for 5 min. After destaining in several distilled water rinses, the membrane was soaked overnight in blocking buffer containing 5% milk in Tris-buffered saline, 0.05% Tween 20. Phosphotyresine was detected by incubating the membrane (1 hr at room temperature) with an anti-phosphotyosine antiserum diluted in blocking buffer at 1:3000. For C6 cells, PDGF-β receptor content in the lysates was confirmed in duplicate sample lanes by western blotting using an antibody specific for PDGF-β receptor (UBI). The antibodies were visualized using ECL reagent from Amersham and by exposure to Fuji RX film.
(§5) For ELISA assays, cells were grown to 80-90% confluency in growth medium and seeded in 96-well tissue culture plates in 0.5% serum at 25,000 to 30,000 cells per well. After overnight incubation in 0.5% serum-containingmedium, cells were changed to serum-free medium and treated with test compound for 2 hr in a 5% CO2, 37° C. incubator. Cells were then stimulated with ligand for 5-10 min followed by lysis with HNTG (20 mM Hepes, 150 mM NaCl, 10% glycerol, 5 mM EDTA, 5 mM Na3 VO4 0.2% Triton X-100, and 2 mM NaPyr). Cell lysates (0.5 mg/well in PBS) were transferred to ELISA plates previously coated with receptor-specific antibody and which had been blocked with 5% milk in TBST (50 mM Tris-HCl pH 7.2, 150 mM NaCl and 0.1% Triton X-100) at room temperature for 30 min. Lysates were incubated with shaking for 1 hr at room temperature. The plates were washed with TBST four times and then incubated with polyclonol anti-phosphotyrosine antibody at room temperature for 30 min. Excess anti-phosphotyrosine antibody was removed by rinsing the plate with TBST four times. Goat anti-rabbit IgG antibody was added to the ELISA plate for 30 min at room temperature followed by rinsing with TBST four more times.
as §3

[6] = target: T4, FLK-1 (Mus musculus, UniProt P35918); experiment: Receptor tyrosine kinase inhibition, FLK-1; assay type: cell-based; settings: read-out: FLK-1 IC50
T4 construct: expressed in transfected cells; host or cells: NIH3T3 mouse fibroblasts, retroviral vector
Experimental: as §4, §5, §3

[7] = target: T2, PDGFR; experiment: Receptor tyrosine kinase inhibition, PDGFR; assay type: cell-based; design: U1242 (PDGF-β receptor); host or cells: U1242 glioma cells (ELISA)
Experimental: as §1, §2, §3

[8] = test system: HER2; experiment: Receptor tyrosine kinase inhibition, HER2; assay type: cell-based; settings: for IC50: read-out: HER2 IC50
Experimental: as §4, §5, §3

[9] = W = done in Western assay, read-out: U1242 KINASE IC50 (W)
[10] = W = done in Western assay; read-out: PDGFR IC50 (W)

T2 sequence (P09619 33-1106): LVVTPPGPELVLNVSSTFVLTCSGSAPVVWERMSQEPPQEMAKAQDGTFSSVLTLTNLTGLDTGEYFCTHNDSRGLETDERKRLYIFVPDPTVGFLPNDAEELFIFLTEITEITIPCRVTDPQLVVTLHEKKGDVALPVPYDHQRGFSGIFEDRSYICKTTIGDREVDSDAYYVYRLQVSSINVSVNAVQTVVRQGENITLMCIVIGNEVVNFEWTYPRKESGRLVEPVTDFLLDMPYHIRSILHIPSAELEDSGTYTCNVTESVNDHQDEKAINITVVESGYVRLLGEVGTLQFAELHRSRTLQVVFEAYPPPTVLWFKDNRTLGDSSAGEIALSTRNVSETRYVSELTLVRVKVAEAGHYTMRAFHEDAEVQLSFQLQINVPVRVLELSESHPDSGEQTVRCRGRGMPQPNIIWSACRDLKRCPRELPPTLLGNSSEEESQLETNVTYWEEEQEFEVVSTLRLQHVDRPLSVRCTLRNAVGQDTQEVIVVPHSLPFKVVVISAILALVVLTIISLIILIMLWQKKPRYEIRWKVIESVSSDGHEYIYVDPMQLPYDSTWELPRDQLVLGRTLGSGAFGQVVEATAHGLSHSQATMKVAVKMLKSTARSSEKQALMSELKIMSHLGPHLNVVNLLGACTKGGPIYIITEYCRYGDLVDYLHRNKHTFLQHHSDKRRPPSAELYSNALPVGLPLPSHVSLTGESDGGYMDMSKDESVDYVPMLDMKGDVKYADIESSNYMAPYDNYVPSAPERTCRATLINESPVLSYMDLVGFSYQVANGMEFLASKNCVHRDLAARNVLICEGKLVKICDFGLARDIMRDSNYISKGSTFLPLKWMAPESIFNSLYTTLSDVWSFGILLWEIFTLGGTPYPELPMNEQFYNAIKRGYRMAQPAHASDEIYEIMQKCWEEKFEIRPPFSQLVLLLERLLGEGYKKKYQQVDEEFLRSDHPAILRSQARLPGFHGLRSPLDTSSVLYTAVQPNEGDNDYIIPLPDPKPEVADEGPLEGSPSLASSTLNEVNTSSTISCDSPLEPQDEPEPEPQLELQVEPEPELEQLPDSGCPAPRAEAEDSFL
T1 sequence (P09619 33-1106): as above
T4 sequence (P35918 20-1345): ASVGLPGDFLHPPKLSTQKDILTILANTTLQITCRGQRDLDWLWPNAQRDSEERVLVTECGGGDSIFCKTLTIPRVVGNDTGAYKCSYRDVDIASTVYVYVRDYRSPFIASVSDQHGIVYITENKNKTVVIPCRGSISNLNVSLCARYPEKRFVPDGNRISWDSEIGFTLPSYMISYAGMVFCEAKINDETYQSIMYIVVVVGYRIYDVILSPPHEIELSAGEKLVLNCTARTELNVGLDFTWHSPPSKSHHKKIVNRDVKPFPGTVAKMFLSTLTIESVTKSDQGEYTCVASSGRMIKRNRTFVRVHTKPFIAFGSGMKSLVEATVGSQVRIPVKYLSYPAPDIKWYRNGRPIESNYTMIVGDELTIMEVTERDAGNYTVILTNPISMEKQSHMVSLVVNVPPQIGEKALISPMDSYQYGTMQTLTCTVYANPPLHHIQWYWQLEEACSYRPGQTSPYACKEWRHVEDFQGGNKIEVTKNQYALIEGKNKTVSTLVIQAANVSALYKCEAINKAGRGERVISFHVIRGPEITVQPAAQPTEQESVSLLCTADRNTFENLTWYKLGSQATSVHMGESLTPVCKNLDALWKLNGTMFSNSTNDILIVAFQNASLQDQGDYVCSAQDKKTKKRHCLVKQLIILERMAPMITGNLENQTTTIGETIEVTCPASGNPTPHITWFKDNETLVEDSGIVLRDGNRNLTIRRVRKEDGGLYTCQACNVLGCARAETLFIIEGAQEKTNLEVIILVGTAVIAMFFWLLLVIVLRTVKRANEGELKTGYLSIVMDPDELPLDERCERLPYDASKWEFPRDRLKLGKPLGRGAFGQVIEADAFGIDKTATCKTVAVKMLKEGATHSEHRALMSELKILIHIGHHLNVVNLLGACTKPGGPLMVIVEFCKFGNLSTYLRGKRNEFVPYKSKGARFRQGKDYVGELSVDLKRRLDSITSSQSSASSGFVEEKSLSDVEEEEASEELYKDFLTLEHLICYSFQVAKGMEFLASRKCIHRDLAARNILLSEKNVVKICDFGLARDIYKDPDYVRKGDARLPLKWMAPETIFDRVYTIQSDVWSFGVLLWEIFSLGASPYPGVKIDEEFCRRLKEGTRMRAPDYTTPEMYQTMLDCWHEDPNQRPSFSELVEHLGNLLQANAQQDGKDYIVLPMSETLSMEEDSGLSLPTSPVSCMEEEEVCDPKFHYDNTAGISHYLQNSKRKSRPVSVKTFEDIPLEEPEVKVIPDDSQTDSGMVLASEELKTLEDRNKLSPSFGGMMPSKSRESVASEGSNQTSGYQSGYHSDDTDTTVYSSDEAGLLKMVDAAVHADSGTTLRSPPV
T3 sequence (P00533 25-1210): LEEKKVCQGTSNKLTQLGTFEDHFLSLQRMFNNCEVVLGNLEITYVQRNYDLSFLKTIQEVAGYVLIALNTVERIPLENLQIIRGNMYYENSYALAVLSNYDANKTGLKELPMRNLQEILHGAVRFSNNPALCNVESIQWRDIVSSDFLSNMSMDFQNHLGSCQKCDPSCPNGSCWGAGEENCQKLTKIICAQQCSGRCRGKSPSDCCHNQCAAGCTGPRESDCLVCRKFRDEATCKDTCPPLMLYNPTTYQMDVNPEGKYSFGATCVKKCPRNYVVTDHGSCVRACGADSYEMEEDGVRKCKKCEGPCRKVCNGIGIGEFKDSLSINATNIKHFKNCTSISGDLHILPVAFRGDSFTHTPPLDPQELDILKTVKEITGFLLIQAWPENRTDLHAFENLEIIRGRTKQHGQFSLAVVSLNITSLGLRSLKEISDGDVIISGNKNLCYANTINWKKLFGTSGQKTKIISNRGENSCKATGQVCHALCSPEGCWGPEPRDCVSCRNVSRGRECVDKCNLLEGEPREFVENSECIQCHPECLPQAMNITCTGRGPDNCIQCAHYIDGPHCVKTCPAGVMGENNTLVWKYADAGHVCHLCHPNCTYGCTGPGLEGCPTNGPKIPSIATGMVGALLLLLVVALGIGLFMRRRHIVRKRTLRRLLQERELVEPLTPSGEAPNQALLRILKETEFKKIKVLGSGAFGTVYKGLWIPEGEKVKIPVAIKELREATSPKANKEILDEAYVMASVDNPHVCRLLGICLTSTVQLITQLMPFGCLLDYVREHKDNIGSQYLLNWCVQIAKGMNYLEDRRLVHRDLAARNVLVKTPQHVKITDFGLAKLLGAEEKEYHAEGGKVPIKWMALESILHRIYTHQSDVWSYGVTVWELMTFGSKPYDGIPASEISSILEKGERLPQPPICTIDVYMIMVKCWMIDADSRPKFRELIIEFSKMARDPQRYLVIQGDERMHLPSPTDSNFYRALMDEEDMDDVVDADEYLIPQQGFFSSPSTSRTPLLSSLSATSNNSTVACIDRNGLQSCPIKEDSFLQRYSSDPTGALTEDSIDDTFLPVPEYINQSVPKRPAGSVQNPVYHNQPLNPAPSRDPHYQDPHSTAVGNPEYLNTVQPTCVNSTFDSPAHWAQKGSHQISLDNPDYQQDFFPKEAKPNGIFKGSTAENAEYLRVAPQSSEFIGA

| Structure (SMILES) | IC50 [2] [µM] | IC50 [3, 10] [µM] | IC50 [5] [µM] | IC50 [6] [µM] | IC50 [8] [µM] | other results |
| --- | --- | --- | --- | --- | --- | --- |
| CC1c2nc3ccccc3c(=O)n2C(c2cccc(O)c2)N1Cc1ccccc1 (stereo not drawn) [Compound H12] | 30 | 25 |  |  |  | IC50 [1, 9]: > 250 µM and 25 µM; IC50 [4]: 19 µM |
| Cc1cc2ncc(-c3ccc([N+](=O)[O-])cc3)nc2cc1C [Compound G27, 2-(4-nitrophenyl) 6.7 dimethylquinoxaline] |  |  | > 100 | > 50 | > 50 | IC50 ([7]; read-out: PDGFR IC50): 48 µM |
| Cc1cc2ccccc2c[n+]1[O-] [Compound P13] |  |  |  |  |  | IC50 ([1]; read-out: U1242 KINASE IC50): 1.2 µM; IC50 [4]: > 100 µM |
| COc1cccc(NC(=S)C(C#N)C(=O)N2CCCC2)c1 (stereo not drawn) [Compound P21, N-3-methoxyphenyl (2-cyano-2-N-pyrrolidinycarbonyl) thioacetamide] |  |  |  |  |  | IC50 ([1]; read-out: U1242 KINASE IC50): 93 µM; IC50 [4]: > 25 µM |
| Cc1cc2ncc(Nc3cccc(Br)c3)nc2cc1C [Compound G28] |  |  |  |  |  | IC50 ([1]; scndry, read-out: U1242 KINASE IC50 (scndry)): 16.4 µM; IC50 [4]: 4.5 µM |
| CC(C)(C)c1cc(C=C(C#N)c2[nH]nc(N)c2C#N)cc(C(C)(C)C)c1O [Compound C13] |  |  | 16 | 3.3 | 29 | IC50 [7]: 16 µM |
| N#CC(=Cc1ccc(O)c(O)c1)c1c(C#N)c(N)nn1-c1ccccc1 [Compound C10] | 25 | 25 |  |  |  | EGF receptor phosphorylation [5]: effects EGF-4, PDGF-R, and HER2 phosphorylation; PDGF-R phosphorylation [3]: effects EGF-4, PDGF-R, and HER2 phosphorylation; HER2 phosphorylation [8]: effects EGF-4, PDGF-R, and HER2 phosphorylation |
| CCOc1ccccc1NC(=O)C(=O)NN=Cc1ccc(O)c(O)c1 [Compound E14] | 100 | 10 |  | > 50 |  |  |
| O=[N+]([O-])c1ccc2ncc(-c3ccccc3)nc2c1 [Compound G23] |  |  | > 100 | 325 | > 100 | IC50 ([3]; read-out: PDGFR IC50 (W); W = done in Western assay): 25 µM |
| COc1cc2cc(-c3ccccc3)c(Cl)nc2cc1OC [Compound G12] | 10 | 10 |  | > 50 |  | EGF receptor phosphorylation [5]: do not effect EGF or HER2 phosphorylation; PDGF-R phosphorylation [3]: inhibit PDGF-R phosphorylation; HER2 phosphorylation [8]: do not effect EGF or HER2 phosphorylation |
| c1ccc(-c2cnc3ccccc3n2)cc1 [Compound G10] | 10 | 10 |  | > 50 |  |  |
| N#CC(=Cc1c[nH]c2ccccc12)C(N)=O [Compound D13] | 30 | 30 |  | > 50 |  |  |

Further lines, with some results ahead:

| IC50 [2] [µM] | IC50 [3, 10] [µM] | IC50 [5] [µM] | IC50 [6] [µM] | IC50 [8] [µM] | Structure (SMILES) | other results |
| --- | --- | --- | --- | --- | --- | --- |
|  |  | > 100 | > 50 | > 50 | COCCCN1C(=O)SC(=Cc2ccccc2Cl)C1=O [Compound P15] | IC50 ([7]; read-out: PDGFR IC50): 46 µM |
|  |  | > 50 | > 200 | 10 | COc1cc2ncnc(Nc3ccccc3)c2cc1OC [Compound P14] | IC50 ([7]; read-out: PDGFR IC50): 26 µM |
|  | 30 | > 100 | > 500 | > 100 | N#CC(=Cc1ccc(O)c(O)c1)C(=O)NCc1ccc(F)cc1 [Compound P25] |  |
|  | 3 | 31 | > 25 | > 100 | N#CC(=Cc1cc(O)c(O)c(Br)c1)C(=O)NCCCNC(=O)C(C#N)=Cc1cc(O)c(O)c(Br)c1 [Compound P10] | IC50 [1, 9]: 3 µM; IC50 [4]: 12 µM |
|  | 25 |  | > 50 | > 50 | O=C(Nc1cc(C(F)(F)F)cc(C(F)(F)F)c1)c1cccs1 [Compound P12] |  |
